Several values for one entry are separate records, joined by “and”; a condition that tells them apart may be missing. Identical values can stand only once.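 Test compounds were applied to cells in 96-well plates for 48 hours at 5 doses. The concentration for 50% growth inhibition is given as GI50. Definition used: TGI = concentration required for complete inhibition of growth.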
Experiments:
Test in all cases: growth of human tumour cells (NCI), 48 h
OVCAR-8 ovarian = tested on: OVCAR-8 ovarian
SF-539 CNS = tested on: SF-539 CNS
LOX IMVI melanoma = tested on: LOX IMVI melanoma
HOP-92 NSCLC = tested on: HOP-92 NSCLC
NCI-H226 lung = tested on: NCI-H226 lung
NCI-H460 lung = tested on: NCI-H460 lung

| SMILES | GI50 (OVCAR-8 ovarian) | TGI (OVCAR-8 ovarian) | GI50 (SF-539 CNS) | TGI (SF-539 CNS) | GI50 (LOX IMVI melanoma) | TGI (LOX IMVI melanoma) | GI50 (HOP-92 NSCLC) [µM] | TGI (HOP-92 NSCLC) [µM] | GI50 (NCI-H226 lung) | TGI (NCI-H226 lung) | GI50 (NCI-H460 lung) | TGI (NCI-H460 lung) |
| --- | --- | --- | --- | --- | --- | --- | --- | --- | --- | --- | --- | --- |
| OCC#Cc1ccccc1C#CCCCCCC#Cc1ccccc1C#CCO | 17.1 µM | 42.1 µM | 20000 nM | 36.3 µM | 19300 nM | 34.8 µM | 17.6 | 33.3 | 21.8 µM | 38.9 µM | 17400 nM | 34 µM |
| CCCCCCCc1cc2c3c(nc4ccccc42)C(=O)c2cccnc2-c3n1 | 5.41 µM | 16.6 µM | 18800 nM | 34.8 µM | 2190 nM | 7.29 µM | 6.34 | 17 | 6.82 µM | 16.3 µM | 1050 nM | 3.1 µM |
| CN(Cc1cc(C(C)(C)C)cc(Br)c1O)Cc1cc(C(C)(C)C)cc(Br)c1O | – | 15.3 µM | – | 7.66 µM | – | 14.8 µM | – | 12.8 | – | 13.3 µM | – | 4.72 µM |
| Cc1cnc(C(=O)NNc2nc3sc4c(c3c(=O)n2C)C(C)CCC4)cn1 (stereo unspecified) | 0.366 µM | 11.9 µM | 396 nM | 2.38 µM | 304 nM | 1.75 µM | 0.724 | 4.57 | 0.404 µM | 3.03 µM | 194 nM | 2.02 µM |
| Cc1ncc(C(=O)Nc2ccc(CN3CCN(C)CC3)c(C(F)(F)F)c2)cc1C#Cc1cnc(N)cc1C#N | 1.3 µM | 5.35 µM | 542 nM | 2.93 µM | 70.9 nM | 0.8 µM | 0.0911 | 1.38 | 0.263 µM | 2.66 µM | 417 nM | 2.84 µM |
| O=C(/C=C/c1ccc(C(F)(F)F)cc1)c1ccc(Nc2nc(NCCO)nc(Nc3ccc(Cl)cc3)n2)cc1 | 5.66 µM | 31.3 µM | 2390 nM | 6.62 µM | 1660 nM | 3.22 µM | 5.39 | 49.4 | 4.29 µM | 18.7 µM | 4000 nM | 13.6 µM |
| COc1cc(C2CC(c3ccc(Nc4ccnc5cc(Cl)ccc45)cc3)=NN2c2ccc(Cl)cc2)cc(OC)c1OC (stereo unspecified) | 4.19 µM | > 100 µM | 1740 nM | 7.36 µM | 1660 nM | 11.3 µM | 1.64 | > 100 | 4.77 µM | > 100 µM | 3160 nM | > 100 µM |
| Cc1cn(-c2cc(NC(=O)c3ccc(C)c(Nc4nccc(-c5cccnc5)n4)c3)cc(C(F)(F)F)c2)cn1 | 4.43 µM and 4.29 µM | > 10 µM and 24.8 µM | > 10000 nM and 15400 nM | > 10 µM and 31.9 µM | 2770 nM and 5570 nM | > 10 µM and 26.5 µM | – | > 100 | > 10 µM and 16.2 µM | > 10 µM and 39.8 µM | 3310 nM and 2330 nM | > 10 µM and 10.7 µM |
| COc1cccc(/C=N/C(/N=C/c2cccc(OC)c2O)c2cccc(OC)c2O)c1O | – | 47.9 µM | – | 48.9 µM | – | 58 µM | – | > 100 | – | – | – | 59.9 µM |
| CC12CCC(Br)C(C)(C)C1CC=C1C(=O)OCC1O2 (stereo unspecified) | – | 34.9 µM | – | > 100 µM | – | 30.4 µM | – | 34.1 | – | 23.2 µM | – | 36.2 µM |
| O=C(OC[C@H]1O[C@H](OC(=O)c2cc(O)c(O)c(OC(=O)c3cc(O)c(O)c(O)c3)c2)[C@H](OC(=O)c2cc(O)c(O)c(OC(=O)c3cc(O)c(O)c(O)c3)c2)[C@@H](OC(=O)c2cc(O)c(O)c(OC(=O)c3cc(O)c(O)c(O)c3)c2)[C@@H]1OC(=O)c1cc(O)c(O)c(OC(=O)c2cc(O)c(O)c(O)c2)c1)c1cc(O)c(O)c(OC(=O)c2cc(O)c(O)c(O)c2)c1 | 1.91 µM | > 25 µM | 5560 nM | > 25 µM | 1240 nM | > 25 µM | 10.6 | > 25 | 3.23 µM | 18 µM | 1090 nM | > 25 µM |
| C=C1C(=O)O[C@H]2[C@H]1CC/C(Cn1cc(-c3ccccc3C(F)(F)F)nn1)=C\CC[C@@]1(C)O[C@@H]21 | 2.23 µM | 6.97 µM | 1760 nM | 3.56 µM | 1110 nM | 2.35 µM | 1.48 | 3.47 | 1.73 µM | 4.69 µM | 3970 nM | 17.7 µM |
| Cn1cc(-c2ccc(-c3ccc(C4=NC5(CC5)C(=O)N4C[C@@H]4CCN(C(=O)C5CC5)C4)cc3)cc2)cn1 | 19.4 µM | > 100 µM | 10700 nM | 32.1 µM | 1470 nM | 18 µM | 23.6 | > 100 | 16 µM | 51.2 µM | 1220 nM | 18 µM |
| COC(=O)[C@@H](C)C[C@H](Cc1ccccc1)NC(=O)c1csc([C@@H](C[C@H](C(C)C)N(C)C(=O)[C@@H](NC(=O)[C@H]2CCCCN2C)C2CC2)OC(C)=O)n1 | 0.000629 µM and 0.00165 µM | > 16.5 µM | 1.25 nM and 1.65 nM | 0.00448 µM and 0.00257 µM | 0.562 nM and 1.65 nM | > 16.5 µM | – | > 16.5 | 0.009 µM and 0.00417 µM | 1.18 µM | 0.362 nM and 1.65 nM | > 16.5 µM |
| O=C1C(=O)c2cccnc2-c2ncccc21 | 0.166 µM | 0.727 µM | 184 nM | 0.502 µM | 60 nM | 0.36 µM | 0.175 | 0.618 | 0.696 µM | 2.05 µM | 67.8 nM | 0.774 µM |
| Cc1cc(N2CCOCC2)cc2[nH]c(-c3c(NC[C@@H](O)c4cccc(Cl)c4)cc[nH]c3=O)nc12 | 3.23 µM | 14.7 µM | 2020 nM | 4.85 µM | 387 nM | 2.19 µM | – | – | 0.361 µM | 5.89 µM | 510 nM | 11.2 µM |
| COC(=O)/C=C/c1cc2c(cc1-c1c(C(=O)O)cc(OC)c(OC)c1OC)OCO2 | – | > 10 µM | – | > 10 µM | – | > 10 µM | – | > 10 | – | – | – | – |
| COC(=O)CC[C@H](Cc1ccccc1)NC(=O)c1csc([C@@H](C[C@H](C(C)C)N(C)C(=O)[C@@H](NC(=O)[C@H]2CCCCN2C)C(C)C)OC(C)=O)n1 | 0.00318 µM | > 25 µM | – | – | < 2.5 nM | > 25 µM | 4.93 | > 25 | – | – | < 2.5 nM | > 25 µM |
| CN(C)CCCNC(=O)c1cc(NC(=O)c2cc(NC(=O)CCNS(=O)(=O)c3ccc4c(c3)C(=O)c3ccccc3C4=O)cn2C)cn1C | > 100 µM | > 100 µM | > 100000 nM | > 100 µM | – | – | > 100 | > 100 | > 100 µM | > 100 µM | > 100000 nM | > 100 µM |

Source: PubChem BioAssay (NCI)
